# From US20260021193A1, “IMMUNOCONJUGATES AND METHODS” (Immunome, Inc., priority 2022, published 2026)
# pIC50: −log10 of the molar value.
# Key:
# [1] = tested on: Jeko-1; assay: CTG assay of payloads, Jeko-1 cells; format: cell-based, human; settings: Homo sapiens, JeKo-1; Table 1; 72 h, CellTiter-Glo
# Excerpt: (§1) The CTG assay is a method of determining the number of viable cells in culture based on quantitation of the ATP present, an indicator of metabolically active cells. The cell assay requires the addition of a single reagent, Cell Titer Glo, in which cells are lysed and generation of a luminescent signal is produced. The luminescent signal is proportional to the amount of ATP present. The amount of ATP is directly proportional to the number of cells present in culture. For this assay, cells were ensured to be in log-phase for either Jeko-1 or MDA-MB-468. Cells were transferred to 96 wells and treated with compounds in three-fold serial dilution starting from […] (10 points dilution), for 72 h. Cell viability was analyzed with CellTiter-Glo® Luminescent Cell Viability Assay (Promega) following manufactures' instruction. Percentage of viable cells in each compound concentration was determined by normalizing with the luminescence of vehicle control and plotted into percentage of viability versus dose response curve by nonlinear fit in GraphPad Prism software.
# [2] = tested on: MDA-MB-468; assay: CTG assay of payloads, MDA-MB-468 cells; format: cell-based, human; settings: Homo sapiens, MDA-MB-468; Table 1; 72 h, CellTiter-Glo
# Excerpt: as §1
# [3] = Human hepatocyte clearance (HHEP CL); format: in vitro ADME; parameters: CLint scaled / half-life: dose or concentration left out as unconfirmed; settings: both sexes, human, hepatocytes
# Description: Suspensions of human hepatocytes (from 10 mixed gender human donors, final concentration 0.5×10^6 cell/mL) in Williams' E medium were incubated for 90 min with a test compound (0.90% acetonitrile and 0.10% DMSO, final concentration […]) and positive controls (7-Ethoxycoumarin, 7-Hydroxycoumarin, 0.90% acetonitrile and 0.10% DMSO, final concentration […]), with constant shaking at about 600 rpm at 37° C. in an incubator at 5% CO2 and 95% humidity. The total volume of incubation was 200 μl. A sample ([…]) was taken out at T0, 15, 30, 60 and 90 min, which was added intermediately to the ice-cold stop solution (acetonitrile with 200 ng/mL of to butamide and labetalol as internal standard) (125 μl), and vortexed at 500 rpm for 10 min, centrifuged at 3220×g for 20 min at 4° C. Analytical plates were sealed and stored at 4° C. until LCMS analysis. Viability of hepatocytes at pre-incubation was determined to be 84.5%.
# (§2) Human liver microsome clearance assay assess metabolism by the cytochrome P450 system (phase I enzymes). These enzymes oxidize substrates by incorporating oxygen atoms into hydrocarbons, thus causing the introduction of hydroxyl groups, or N- O- and S-dealkylation of substrates and forming more polar products easier to be cleared. Human hepatocyte clearance assay measures more broadly the overall cellular metabolism of the test compound (phase I and phase II enzyme pathways). Phase II enzymes catalyze the conjugation reaction of xenobiotic metabolites and charged species, such as glutathione, sulfate, glycine, or glucuronic acid to form even more polar compounds for easier clearance.
# [4] = Human liver microsome clearance (HLM CL); format: in vitro ADME; parameters: CLint scaled / half-life: dose or concentration left out as unconfirmed; settings: human, microsomes
# Description: Working solution was prepared by adding 5 μL of compound and control stock solution (10 mM in dimethyl sulfoxide, DMSO) to 495 μL of acetonitrile (ACN) (intermediate solution concentration: 100 μM, 99% CAN and 1% DMSO. The appropriate concentrations of microsome working solutions were prepared in 100 mM potassium phosphate buffer. After reaction plates containing mixtures of compound and microsomes were pre-incubated at 37° C. for 10 min, […] of 2 mM of NADPH and 2 mM of MgCl2 solution was added to start the reaction. The final concentrations of incubation medium were as follows: microsome—0.5 mg protein/mL, test compound/control […], NADPH—1 mM, MgCl2—1 mM, acetonitrile 0.99%, DMSO 0.01%. Incubations were performed at 37° C. for 60 min. Samples were taken out at T0, T5, T15, T30, T45 and T60, which was added intermediately to the ice-cold stop solution (acetonitrile with 200 ng/mL of to butamide and labetalol as internal standard) (125 μl), shaken for 10 min, centrifuged at 4000 rpm for 20 min at 4° C. Analytical plates were analyzed by LCMS.
# as §2
# [5] = PAMPA (Parallel Artificial Membrane Permeability Assay); format: physicochemical; parameters: dose or concentration left out as unconfirmed
# Excerpt: PAMPA is a method which determines the permeability of substances from a donor compartment, through a lipid-infused artificial membrane into an acceptor compartment. See Ottaviani, G.; Martel, S.; Carrupt, P-A. “Parallel Artificial Membrane Permeability Assay: A New Membrane for the Fast Prediction of Passive Human Skin Permeability”, Journal of Medicinal Chemistry, 2006, 49 (13), 3948-3954). A multi-well microtitre plate is used for the donor and a membrane/acceptor compartment is placed on top; the whole assembly is commonly referred to as a “sandwich”. At the beginning of the test, the drug is added to the donor compartment, and the acceptor compartment is drug-free. After an incubation period which may include stirring, the sandwich is separated, and the amount of drug is measured in each compartment. Mass balance allows calculation of drug that remains in the membrane.
# The PAMPA was performed by Pion Inc using the GIT-0 lipid and 5 mM donor solution in pH 5.0 and pH 7.4 PRISMA buffer (containing 0.05% DMSO). The higher PAMPA data has been associated with better bystander killing. (Ogitani Y.; Hagihara K.; Oitate, M.; Naito, H.; Agatsuma T. “Bystander killing effect of DS-8201a, a novel anti-human epidermal growth factor receptor 2 antibody-drug conjugate, in tumors with human epidermal growth factor receptor 2 heterogeneity” Cancer Science, 2016, 107 (7), 1039-1046).
Structure (SMILES),pIC50 [1],pIC50 [2],CLint scaled [3],half-life [3],CLint scaled [4],half-life [4],Papp ([5]; pH 5),Papp ([5]; pH 7.4)
"CC[C@@]1(O)C(=O)OCc2c1cc1n(c2=O)Cc2c-1nc1cc(F)c(C)c3c1c2[C@](C)(N1CC[C@@H](O)C1)CC3 (single isomer, unassigned) [Compound 5-40]",8.00,7.16,102 mL/min/kg,38 min,238 mL/min/kg,5.2 min,52.2 ×10⁻⁶ cm/s,6 ×10⁻⁶ cm/s
"CC[C@@]1(O)C(=O)OCc2c1cc1n(c2=O)Cc2c-1nc1cc(F)c(C)c3c1c2[C@](C)(N1CC[C@H](O)C1)CC3 (single isomer, unassigned) [Compound 5-41]",7.94,7.04,49.8 mL/min/kg,77 min,92.5 mL/min/kg,13.5 min,53.5 ×10⁻⁶ cm/s,6.6 ×10⁻⁶ cm/s
"CC[C@@]1(O)C(=O)OCc2c1cc1n(c2=O)Cc2c-1nc1cc(F)c(C)c3c1c2[C@@H](CO)CC3 (single isomer, unassigned) [Compound 1-17]",9.00,8.11,17.9 mL/min/kg,215 min,53.2 mL/min/kg,23.5 min,74.7 ×10⁻⁶ cm/s,7.8 ×10⁻⁶ cm/s
"CC[C@@]1(O)C(=O)OCc2c1cc1n(c2=O)Cc2c-1nc1cc(F)c(C)c3c1c2[C@@](C)(CO)CC3 (single isomer, unassigned) [Compound 3-28]",8.89,8.00,62.9 mL/min/kg,61 min,53.8 mL/min/kg,23 min,64 ×10⁻⁶ cm/s,8.4 ×10⁻⁶ cm/s
"CC[C@@]1(O)C(=O)OCc2c1cc1n(c2=O)Cc2c-1nc1cc(F)c(C)c3c1c2[C@H](CO)CC3 (single isomer, unassigned) [Compound 1-16]",9.10,8.14,33 mL/min/kg,117 min,44 mL/min/kg,28 min,40.4 ×10⁻⁶ cm/s,8.5 ×10⁻⁶ cm/s
